≈ marks a conversion by molar mass, not a printed value. Where two headings read alike, the source gives them in different places.
Tests used:
[1] = molecular target: fungal (fACC2) (UniProt Q00955); details: read-out: fACC2 (in vitro ACC2 Inhibition Assay, IC50), ADP-Glo, 5 nM ACC2, 20 μM ATP, 20 μM acetyl-CoA
[2] = molecular target: human (hACC2) (Homo sapiens, UniProt O00763); test: In vitro ACC inhibition assay (ADP-Glo), hACC2; format: biochemical; details: 5 nM ACC2, 20 μM ATP, 20 μM acetyl-CoA
Chain of human (hACC2) (O00763 whole entry): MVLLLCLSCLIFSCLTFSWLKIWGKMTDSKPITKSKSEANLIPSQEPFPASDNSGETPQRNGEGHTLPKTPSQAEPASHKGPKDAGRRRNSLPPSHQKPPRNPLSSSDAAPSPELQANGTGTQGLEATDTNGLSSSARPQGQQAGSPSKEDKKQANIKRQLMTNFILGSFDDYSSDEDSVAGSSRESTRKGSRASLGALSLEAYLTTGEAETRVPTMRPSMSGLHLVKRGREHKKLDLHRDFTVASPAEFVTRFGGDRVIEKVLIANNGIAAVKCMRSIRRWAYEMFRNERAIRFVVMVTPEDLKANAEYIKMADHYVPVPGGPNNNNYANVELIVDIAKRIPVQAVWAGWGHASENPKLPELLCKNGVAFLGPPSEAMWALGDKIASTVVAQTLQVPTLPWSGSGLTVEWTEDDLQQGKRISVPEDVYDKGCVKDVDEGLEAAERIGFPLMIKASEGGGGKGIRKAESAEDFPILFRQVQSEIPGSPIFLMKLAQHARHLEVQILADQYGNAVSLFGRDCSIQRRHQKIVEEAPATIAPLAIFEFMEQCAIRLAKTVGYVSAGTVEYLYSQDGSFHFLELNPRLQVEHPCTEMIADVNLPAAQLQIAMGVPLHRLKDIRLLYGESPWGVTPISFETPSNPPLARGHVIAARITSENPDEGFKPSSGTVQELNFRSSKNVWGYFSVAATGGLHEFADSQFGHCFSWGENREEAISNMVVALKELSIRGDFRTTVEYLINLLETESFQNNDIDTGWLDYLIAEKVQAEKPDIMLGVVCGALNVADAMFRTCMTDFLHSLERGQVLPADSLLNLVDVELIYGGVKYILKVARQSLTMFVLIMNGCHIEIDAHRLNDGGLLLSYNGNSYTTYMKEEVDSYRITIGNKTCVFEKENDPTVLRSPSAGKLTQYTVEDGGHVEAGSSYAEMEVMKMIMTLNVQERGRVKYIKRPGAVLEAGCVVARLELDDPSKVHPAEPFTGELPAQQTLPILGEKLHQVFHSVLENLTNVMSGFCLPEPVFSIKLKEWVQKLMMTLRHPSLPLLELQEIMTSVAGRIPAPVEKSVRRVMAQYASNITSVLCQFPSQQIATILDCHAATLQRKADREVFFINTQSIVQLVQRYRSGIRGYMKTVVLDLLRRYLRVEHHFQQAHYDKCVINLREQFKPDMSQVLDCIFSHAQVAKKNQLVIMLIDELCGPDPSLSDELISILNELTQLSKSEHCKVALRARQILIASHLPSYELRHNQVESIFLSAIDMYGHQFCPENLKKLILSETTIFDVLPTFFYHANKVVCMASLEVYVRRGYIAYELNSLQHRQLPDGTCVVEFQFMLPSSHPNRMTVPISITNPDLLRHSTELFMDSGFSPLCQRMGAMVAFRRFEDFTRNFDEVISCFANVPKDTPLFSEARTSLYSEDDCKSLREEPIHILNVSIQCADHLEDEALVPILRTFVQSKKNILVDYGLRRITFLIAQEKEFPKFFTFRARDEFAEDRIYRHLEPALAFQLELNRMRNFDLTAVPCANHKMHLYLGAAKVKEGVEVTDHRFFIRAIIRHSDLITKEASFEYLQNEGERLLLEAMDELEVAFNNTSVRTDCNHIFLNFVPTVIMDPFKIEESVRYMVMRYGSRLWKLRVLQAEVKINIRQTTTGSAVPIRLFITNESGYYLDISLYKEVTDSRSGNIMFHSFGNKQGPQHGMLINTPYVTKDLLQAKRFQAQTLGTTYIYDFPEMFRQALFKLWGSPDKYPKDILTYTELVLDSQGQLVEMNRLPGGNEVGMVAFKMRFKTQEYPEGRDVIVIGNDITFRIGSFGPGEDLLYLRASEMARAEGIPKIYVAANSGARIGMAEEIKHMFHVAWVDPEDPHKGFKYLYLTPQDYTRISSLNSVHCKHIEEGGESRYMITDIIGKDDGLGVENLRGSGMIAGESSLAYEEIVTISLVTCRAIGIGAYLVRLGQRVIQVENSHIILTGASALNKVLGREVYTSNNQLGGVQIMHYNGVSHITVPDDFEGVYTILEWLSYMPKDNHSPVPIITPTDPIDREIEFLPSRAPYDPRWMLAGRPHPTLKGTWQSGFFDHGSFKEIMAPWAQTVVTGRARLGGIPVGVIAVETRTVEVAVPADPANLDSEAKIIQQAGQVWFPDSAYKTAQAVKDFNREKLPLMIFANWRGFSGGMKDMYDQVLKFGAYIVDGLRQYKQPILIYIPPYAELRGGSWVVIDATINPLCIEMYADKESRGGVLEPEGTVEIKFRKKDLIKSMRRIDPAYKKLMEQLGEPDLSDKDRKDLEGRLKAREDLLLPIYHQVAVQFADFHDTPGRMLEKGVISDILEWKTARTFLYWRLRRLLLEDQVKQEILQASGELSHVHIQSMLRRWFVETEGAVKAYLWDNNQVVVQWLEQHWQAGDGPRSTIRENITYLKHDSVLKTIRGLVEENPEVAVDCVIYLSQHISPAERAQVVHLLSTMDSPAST
Description: The detailed procedure is as follows. […] 10 μL ADP glo reagent was added. […] 20 μL kinase detection reagent was added.

[3] = system: C. krusei; test: Antifungal Activity Assay (broth microtiter MIC), C. krusei; format: cell-based, Candida krusei; details: Pichia kudriavzevii, ATCC6258, 48 h, ATCC 6258, 3 replicates, MIC recorded at 48 h, read-out: MIC, C. krusei ATCC 6258
Description: (§1) Compounds of the present invention were evaluated in an Antifungal Activity Assay. An exemplary procedure for the assay, which measures the susceptibility of various Candida species to antifungal compounds, follows. Compounds to be tested (including fluconazole and amphotericin B) were dissolved in DMSO to obtain a solution having a concentration of 1 mg/mL. These stock solutions were sterile filtered using a 0.22 um nylon syringe filter, then diluted in sterile water to achieve a final concentration of 128 μg/mL.
(§2) All species were grown from frozen stock by directly plating on to freshly prepared Sabouraud Dextrose agar (BD, Difco) and incubated overnight in ambient air at 35° C. for 24 h. A direct suspension was prepared in RPMI 1640+MOPS (Lonza, Biowhittaker) by taking individual colonies from the overnight cultures using sterile swabs soaked in sterile saline. The concentration of the suspension was determined using pre-determined standard curves. These suspensions were then diluted down to 5×10^3 CFU/mL to achieve a final concentration of 2.5×10^3 CFU/mL once added to the microtiter plate as per CLSI guidelines (M27-A3, Vol. 28 No. 14).
(§3) Broth microtiter MIC challenge plates were prepared following CLSI guidelines (M27-A3, Vol. 28 No. 14). The original CLSI guidelines focused on reading Candida MICs after 48 h of incubation. As reading after only 24 h offers a clear advantage of patient care, QC limits are being established for all drugs at 24 h. That being said there are no known interpretive breakpoints for amphotericin B at 24 h and the current fluconazole interpretive breakpoints are based on a 48 h reading. The MICs for the test compounds were recorded at 48 h. All MIC determinations were achieved by visually comparing the growth found in the antibiotic challenged wells to that of the growth control.

[4] = system: C. parapsilosis; test: Antifungal Activity Assay (broth microtiter MIC), C. parapsilosis; format: cell-based, Candida parapsilosis; details: Lodderomyces parapsilosis, ATCC22019, 48 h, ATCC 22019, 3 replicates, MIC recorded at 48 h, read-out: MIC, C. parapsilosis ATCC 22019
Description: as §1, §2, §3

[5] = system: C. albicans; test: Antifungal Activity Assay (broth microtiter MIC), C. albicans; format: cell-based, Candida albicans; details: Candida albicans, ATCC90028, 48 h, ATCC 90028, 3 replicates, MIC recorded at 48 h, read-out: MIC, C. albicans ATCC 90028
Description: as §1, §2, §3

Chain of fungal (fACC2) (Q00955 whole entry): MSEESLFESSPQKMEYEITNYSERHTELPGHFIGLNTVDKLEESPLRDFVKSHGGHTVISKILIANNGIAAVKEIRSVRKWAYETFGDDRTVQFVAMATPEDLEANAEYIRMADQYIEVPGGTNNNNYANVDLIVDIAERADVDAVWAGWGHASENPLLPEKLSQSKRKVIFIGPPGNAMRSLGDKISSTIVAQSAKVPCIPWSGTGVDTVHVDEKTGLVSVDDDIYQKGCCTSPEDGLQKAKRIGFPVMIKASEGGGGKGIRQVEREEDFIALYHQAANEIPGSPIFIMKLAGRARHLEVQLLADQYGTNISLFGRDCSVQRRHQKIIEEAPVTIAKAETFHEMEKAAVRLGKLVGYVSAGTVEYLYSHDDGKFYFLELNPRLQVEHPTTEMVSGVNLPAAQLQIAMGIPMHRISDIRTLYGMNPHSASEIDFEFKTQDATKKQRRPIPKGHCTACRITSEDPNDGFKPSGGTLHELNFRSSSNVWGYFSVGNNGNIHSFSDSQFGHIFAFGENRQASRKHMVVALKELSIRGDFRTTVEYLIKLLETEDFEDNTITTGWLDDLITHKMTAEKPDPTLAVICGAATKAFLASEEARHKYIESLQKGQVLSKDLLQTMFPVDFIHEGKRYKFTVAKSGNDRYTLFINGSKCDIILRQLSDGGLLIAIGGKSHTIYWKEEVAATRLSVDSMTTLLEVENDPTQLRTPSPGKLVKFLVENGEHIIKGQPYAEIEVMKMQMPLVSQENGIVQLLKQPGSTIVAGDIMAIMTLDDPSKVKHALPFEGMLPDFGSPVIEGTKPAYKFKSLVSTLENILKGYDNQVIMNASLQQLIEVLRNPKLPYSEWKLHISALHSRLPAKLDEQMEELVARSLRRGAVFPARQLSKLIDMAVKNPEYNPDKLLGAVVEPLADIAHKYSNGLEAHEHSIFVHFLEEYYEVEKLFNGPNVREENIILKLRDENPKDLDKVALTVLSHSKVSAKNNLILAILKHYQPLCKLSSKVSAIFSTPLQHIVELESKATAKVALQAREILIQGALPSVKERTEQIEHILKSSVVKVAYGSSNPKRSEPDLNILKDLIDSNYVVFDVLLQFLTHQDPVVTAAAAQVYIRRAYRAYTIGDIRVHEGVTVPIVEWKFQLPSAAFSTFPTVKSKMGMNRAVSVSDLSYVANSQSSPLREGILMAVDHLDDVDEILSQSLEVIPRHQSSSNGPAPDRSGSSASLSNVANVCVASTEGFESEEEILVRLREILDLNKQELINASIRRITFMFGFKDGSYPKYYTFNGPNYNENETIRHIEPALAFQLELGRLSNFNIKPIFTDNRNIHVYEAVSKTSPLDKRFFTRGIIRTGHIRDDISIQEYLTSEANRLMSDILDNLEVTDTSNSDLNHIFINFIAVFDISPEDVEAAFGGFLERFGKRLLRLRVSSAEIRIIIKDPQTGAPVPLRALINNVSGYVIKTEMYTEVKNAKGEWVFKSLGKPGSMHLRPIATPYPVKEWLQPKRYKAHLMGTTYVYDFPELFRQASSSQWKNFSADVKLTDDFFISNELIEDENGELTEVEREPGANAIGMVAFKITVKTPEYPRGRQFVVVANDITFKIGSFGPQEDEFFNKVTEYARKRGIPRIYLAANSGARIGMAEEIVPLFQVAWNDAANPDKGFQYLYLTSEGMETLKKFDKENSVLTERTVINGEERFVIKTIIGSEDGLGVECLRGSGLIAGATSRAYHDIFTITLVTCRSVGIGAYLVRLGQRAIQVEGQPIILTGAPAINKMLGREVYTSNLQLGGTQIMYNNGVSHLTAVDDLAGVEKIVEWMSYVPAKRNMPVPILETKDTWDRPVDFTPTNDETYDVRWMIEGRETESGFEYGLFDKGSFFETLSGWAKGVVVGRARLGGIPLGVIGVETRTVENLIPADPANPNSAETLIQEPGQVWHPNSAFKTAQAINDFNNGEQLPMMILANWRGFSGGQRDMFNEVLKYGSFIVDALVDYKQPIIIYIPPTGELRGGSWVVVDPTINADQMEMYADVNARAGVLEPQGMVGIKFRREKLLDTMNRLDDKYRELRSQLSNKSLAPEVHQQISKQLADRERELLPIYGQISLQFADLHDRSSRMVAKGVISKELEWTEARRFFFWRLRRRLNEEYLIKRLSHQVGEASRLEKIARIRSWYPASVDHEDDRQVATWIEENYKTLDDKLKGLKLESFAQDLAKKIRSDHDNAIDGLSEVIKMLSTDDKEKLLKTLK

Row | SMILES | IC50 ([1]; Table 2a) [nM] | IC50 ([1]; Table 2b, additional results) [nM] | IC50 ([2]; Table 2a) [nM] | IC50 ([2]; Table 2b, additional results) [nM] | MIC ([3]; Table 3a) [µg/mL] | MIC ([3]; Table 3b (additional results)) [µg/mL] | MIC ([4]; Table 3a) [µg/mL] | MIC ([4]; Table 3b (additional results)) [µg/mL] | MIC ([5]; Table 3a) [µg/mL] | MIC ([5]; Table 3b (additional results)) [µg/mL]
1 | Cc1c(-n2nccn2)sc2c1c(=O)n(C(C)(C)C(=O)NC(C)C)c(=O)n2C[C@H](OC1CCOCC1)c1cc(F)ccc1OCCO [Compound I-111] | 0.4 to 1 | 0.3 to 1 | 1 to 5 | 1 to 5 | 0.25 to 1 (≈ 0.38 to 1.52 µM) | 0.06 to 0.249 (≈ 0.0911 to 0.378 µM) | 0.25 to 1 (≈ 0.38 to 1.52 µM) | 0.25 to 1 (≈ 0.38 to 1.52 µM) | 0.25 to 1 (≈ 0.38 to 1.52 µM) | 0.06 to 0.249 (≈ 0.0911 to 0.378 µM)
2 | Cc1c(-n2nccn2)sc2c1c(=O)n(C(C)(C)C(=O)N1CCCC1)c(=O)n2C[C@H](OC1CCOCC1)c1cc(F)ccc1OCCO [Compound I-112] | 0.4 to 1 | 0.3 to 1 | 1 to 5 | 1 to 5 | 0.25 to 1 (≈ 0.373 to 1.49 µM) | 0.25 to 1 (≈ 0.373 to 1.49 µM) | 0.25 to 1 (≈ 0.373 to 1.49 µM) | 1.01 to 2 (≈ 1.51 to 2.98 µM) | 0.25 to 1 (≈ 0.373 to 1.49 µM) | 0.25 to 1 (≈ 0.373 to 1.49 µM)
3 | COc1ccc(F)cc1[C@H](Cn1c(=O)n(C(C)(C)C(=O)N2CCCC2)c(=O)c2c(C)c(-n3nccn3)sc21)OCC(O)C(F)(F)F (stereo partly drawn) [Compound I-113] | 1 to 5 | 1 to 5 | 1 to 5 | 1 to 5 | 0.25 to 1 (≈ 0.374 to 1.5 µM) | 2.01 to 4 (≈ 3.01 to 5.98 µM) | 1.1 to 2 (≈ 1.65 to 2.99 µM) | 1.01 to 2 (≈ 1.51 to 2.99 µM) | 0.25 to 1 (≈ 0.374 to 1.5 µM) | > 4.01
4 | C=CCN(C)C(=O)C(C)(C)n1c(=O)c2c(C)c(-n3nccn3)sc2n(C[C@H](OC(C)C)c2cc(F)ccc2OC)c1=O [Compound I-115] | 1 to 5 | 1 to 5 | 5 to 10 | 5 to 10 | 1.1 to 2 (≈ 1.84 to 3.34 µM) | 1.01 to 2 (≈ 1.69 to 3.34 µM) | 1.1 to 2 (≈ 1.84 to 3.34 µM) | > 4.01 | 2.1 to 4 (≈ 3.51 to 6.68 µM) | 1.01 to 2 (≈ 1.69 to 3.34 µM)
5 | Cc1c(-n2nccn2)sc2c1c(=O)n(C(C)(C)C(=O)NC(C)C)c(=O)n2C[C@H](OC1CCOCC1)c1cc(F)ccc1OCC#N [Compound I-116] | 0.4 to 1 | 0.3 to 1 | 5 to 10 | 5 to 10 | 0.25 to 1 (≈ 0.382 to 1.53 µM) | 0.25 to 1 (≈ 0.382 to 1.53 µM) | 0.25 to 1 (≈ 0.382 to 1.53 µM) | 0.25 to 1 (≈ 0.382 to 1.53 µM) | 0.25 to 1 (≈ 0.382 to 1.53 µM) | 0.25 to 1 (≈ 0.382 to 1.53 µM)
6 | COc1ccc(F)cc1[C@H](Cn1c(=O)n(C(C)(C)C(=O)N2CC=CC2)c(=O)c2c(C)c(-n3nccn3)sc21)OC[C@H](C)O [Compound I-117] | 0.4 to 1 | 0.3 to 1 | 5 to 10 | 5 to 10 | 0.25 to 1 (≈ 0.408 to 1.63 µM) | > 4.01 | 2.1 to 4 (≈ 3.43 to 6.53 µM) | 2.01 to 4 (≈ 3.28 to 6.53 µM) | 2.1 to 4 (≈ 3.43 to 6.53 µM) | 1.01 to 2 (≈ 1.65 to 3.26 µM)
7 | COc1ccc(F)cc1[C@H](Cn1c(=O)n(C(C)(C)C(=O)N2CCCC2)c(=O)c2c(C)c(-n3nccn3)sc21)OCCCO [Compound I-118] | 0.4 to 1 | 0.3 to 1 | 1 to 5 | 1 to 5 | 0.25 to 1 (≈ 0.407 to 1.63 µM) | 1.01 to 2 (≈ 1.64 to 3.25 µM) | 2.1 to 4 (≈ 3.42 to 6.51 µM) | 1.01 to 2 (≈ 1.64 to 3.25 µM) | 1.1 to 2 (≈ 1.79 to 3.25 µM) | 1.01 to 2 (≈ 1.64 to 3.25 µM)
8 | COc1ccc(F)cc1[C@H](Cn1c(=O)n(C(C)(C)C(=O)NC(C)C)c(=O)c2c(C)c(-n3nccn3)sc21)OCCCO [Compound I-119] | 0.4 to 1 | 0.3 to 1 | 1 to 5 | 1 to 5 | 0.06 to 0.24 (≈ 0.0996 to 0.398 µM) | 0.25 to 1 (≈ 0.415 to 1.66 µM) | 0.25 to 1 (≈ 0.415 to 1.66 µM) | 0.25 to 1 (≈ 0.415 to 1.66 µM) | 0.25 to 1 (≈ 0.415 to 1.66 µM) | 0.25 to 1 (≈ 0.415 to 1.66 µM)
9 | C=CCNC(=O)C(C)(C)n1c(=O)c2c(C)c(-n3nccn3)sc2n(C[C@H](OC(C)C)c2cc(F)ccc2OC)c1=O [Compound I-120] | 1 to 5 | 1 to 5 | 5 to 10 | 5 to 10 | 0.25 to 1 (≈ 0.428 to 1.71 µM) | 0.25 to 1 (≈ 0.428 to 1.71 µM) | 0.25 to 1 (≈ 0.428 to 1.71 µM) | 2.01 to 4 (≈ 3.44 to 6.84 µM) | 0.25 to 1 (≈ 0.428 to 1.71 µM) | 1.01 to 2 (≈ 1.73 to 3.42 µM)

Reference: patent US10800791B2, “Triazole ACC inhibitors and uses thereof” (Gilead Apollo, LLC, priority 2015, dated 2020)
